The subject of this test is patterned hPSC-CMs. Nature of the test: beta-adrenergic stimulation of micropatterned hPSC-CMs with isoproterenol (contraction, digital image correlation). The test is classed as cell-based, human. Conditions: patterned CMs on 10 kPa PDMS, 1 μM isoproterenol. An excerpt:
In this Example, cardiomyocytes were differentiated from the 19-9-11 iPSC line and purified using lactate media. 10 kPa PDMS substrates mimicking the elasticity of the healthy myocardium were made by blending together commercially available Sylgard 184 and 527. […] Statistical analyses were done using one-way ANOVA with post hoc Tukey test.

As for `CC(C)NCC(O)c1ccc(O)c(O)c1` (centres unmarked) [isoproterenol], the rate of contraction result is “increase in the rate of contraction”. The “amplitude of contraction (x-displacement)” value (versus baseline normal contraction) is listed as “amplitude of contraction also increased from baseline”.

The values above are taken from patent US20200048611A1, “ENGINEERED PLATFORM FOR CONNECTED MICROPATTERNED CARDIAC TISSUES” (Wisconsin Alumni Research Foundation, priority 2018, published 2020).
